The results in this text go back to patent publication US7214794B2, “Ceramide analogs, process for their preparation and their use as antitumor agents” (Bracco S.p.A., priority 1999, dated 2007).

This assay deals with human leukemia cell line CCRF/CEM. Nature of the assay: Cytotoxicity test (growth inhibition of CCRF/CEM cells). The assay is classed as cell-based. The note with it: 72 hours exposure, cell count, non-linear regression, read-out: IC50 (concentration capable of inhibiting 50% of cell growth). The method, then: The cytotoxicity of the compounds synthesized 1–28 was assessed using a human leukemia cell line called CCRF/CEM. The CCRF/CEM cells were cultured in a culture medium containing RPMI 1640 (90%), bovine fetal sera (10%) and interleukin-2 (100 U/ml). The cytotoxicity assay was performed on […] CCRF/CEM cells seeded in 35 mm wells in 2 ml of culture medium. The cells were treated with the compounds under consideration for 72 hours and at the end of the period of exposure their number was counted and compared with that of control cells treated with C2-ceramide in order to establish the percentage of growth inhibition. The concentration capable of inhibiting 50% of cell growth was calculated by non-linear regression of the experimental data as described in M. Macchia, N. Jannitti, G. B. Gervasi, R. Danesi, J Med Chem, (1996) 39 (7): 1352–1356.

On to `CCCCCCCCCCCCC/C=C/[C@@H](O)[C@H](CO)NC(C)=O` [controls, C2-ceramide], for which the IC50 was found to be 31.6 µM.
